Results published in patent publication EP0377457A1, “Thiazole compounds, processes for the preparation thereof, and pharmaceutical composition comprising the same” (FUJISAWA PHARMACEUTICAL CO., LTD., priority 1989, dated 1990).
Counter-ions that a name gives are not always drawn. Like-named read-outs stand apart in the source and are kept apart here. One block for each compound: values may come before it.

Columns and labels:
stomachs of the rats = assay: Effect on stomach of rats; assay type: in vivo; details: 100 mg/kg orally, rats treated as in the antiinflammatory test
cyclooxygenase = biological target: T1, cyclooxygenase (Ovis aries, UniProt P05979); assay: Assay for cyclooxygenase inhibition; assay type: biochemical, sheep
T1 construct: 240 µg of the microsomal enzyme; tissue Ran Biochem (Israel); host or cells: sheep seminal vesicles, microsomal fraction
T1 sequence (P05979 25-600): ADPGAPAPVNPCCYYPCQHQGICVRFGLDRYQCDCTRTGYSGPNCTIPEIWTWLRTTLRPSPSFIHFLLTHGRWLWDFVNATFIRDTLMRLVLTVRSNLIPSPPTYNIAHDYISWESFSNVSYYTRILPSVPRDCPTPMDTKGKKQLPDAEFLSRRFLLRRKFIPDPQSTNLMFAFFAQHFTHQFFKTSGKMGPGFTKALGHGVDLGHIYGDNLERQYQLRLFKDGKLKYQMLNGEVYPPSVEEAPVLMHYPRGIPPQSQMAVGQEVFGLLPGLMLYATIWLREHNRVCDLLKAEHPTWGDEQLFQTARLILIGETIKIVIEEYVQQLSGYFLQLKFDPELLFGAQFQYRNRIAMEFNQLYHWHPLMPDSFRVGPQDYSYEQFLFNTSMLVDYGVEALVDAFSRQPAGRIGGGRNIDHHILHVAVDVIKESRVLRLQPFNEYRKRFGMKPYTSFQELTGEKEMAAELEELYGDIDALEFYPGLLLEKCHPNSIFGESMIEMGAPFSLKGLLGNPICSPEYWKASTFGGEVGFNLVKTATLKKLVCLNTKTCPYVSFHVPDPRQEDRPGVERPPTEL
Description: The microsomal fraction from sheep seminals vesicles was purchased from Ran Biochem (Israel). The reaction mixture consisted of 0.1 M Tris-HCI, pH 7.6, 1 mM epinephrine, 2 mM glutathione, 240 µg of the microsomal enzyme, in a total volume of 200 µl. The reaction was started by the addition of 10 µM (^14C) arachidonic acid (120 nM), and incubated at 37° C for 5 min. The reaction was stopped by the addition of 50 µl of 1 N HCI. The synthesized prostaglandins were extracted with 1.5 ml of ethylacetate. The ethyl acetate layer was dried with nitrogen gas, and dissolved in 100 µl of methanol. Ten microliters of the methanol solution were applied to a thin-layer plate (Merck, Kiesegel 60F), and developed with ethylacetate : acetate (100:2). The PGE2 fraction was scraped out, and the radioactivity was counted with 10 ml of toluene scintilator.
The activity of the test compound was expressed as IC50 value i.e. doses required to inhibit the activity of cyclooxygenase by 50%.

Paw edema = assay: Antiinflammatory activity (carrageenin paw edema); assay type: in vivo, Sprague-Dawly rats; details: 100 mg/kg orally 60 minutes before carrageenin; edema volume at 3 hours
Description: Five male Sprague-Dawly rats weighing 160-180 g were used per group. Paw edema was induced by subplantar injection of 1 % carrageenin (0.1 ml/rat) into the right hind paw. The test drug was suspended in 0.5% methylcellulose and administered orally 60 minutes before phlogogen. Paw volume was measured with plethysmometer (Ugo Bazil Co., Ltd.) by water displacement immersing the paw to the lateral malleolus. The difference of paw volume before and 3 hours after the phlogogen was designated as edema volume. The data were analyzed statistically by student's t-test.

rats = assay: Acute toxicity; assay type: in vivo; details: peroral administration, 100 mg/kg
[1] = test system: SRS-A synthesis or release from peritoneal exudate cells; assay: Anti-SRS-A activity; assay type: cell-based, SD rats; details: rat peritoneal exudate cells; Ca++-ionophore 1 µg/ml; SRS-A read on isolated guinea pig ileum; read-out: Inhibitory Concentration IC50
Description: Peritoneal exudate cells were collected from glycogen-injected SD rats and adjusted to 1 x 10^7 cells/ml with Tyrode's solution. One milliliter of the cell suspension was incubated with indomethacin (10 µg/ml) and each varied concentration of the test compound for 10 minutes and, then, further incubated with Ca^++ - ionophore (A123187, 1 µg/ml) for 10 minutes. The supernatant was collected by centrifugation and the SRS-A (slow-reacting substance of anaphylaxis) activity was determined in terms of contractility of the isolated guinea pig ileum in the presence of mepyramine, atropine and methysergide.
The results were expressed in terms of the 50% inhibitory concentration to SRS-A synthesis or release from peritoneal exudate cells.

platelet aggregation [2] = assay: Platelet aggregation ex vivo (arachidonic acid-induced, PRP after oral administration); assay type: in vivo, guinea-pigs; details: Cavia porcellus, 6 h, dose 1.0 mg/kg oral, blood collected six hours after administration, arachidonic acid final 50 µM as inducer
Description: Male Hartley guinea-pigs weighing about 300 g were used after 24 hours fasting. Six hours after oral administration of the test compound or vehicle of test compound (control), blood was collected into a tube containing 0.1 vol. of 3.8% sodium citrate and prepared platelet rich plasma (PRP).
To the 250 µl of PRP, 5 µl of arachidonic acid (final 50 µM) was added as an aggregation inducer. Aggregation was measured by using an aggregometer (NKK HEMA-TRACER 1).

isolated rat aorta = assay: Relaxation effect on isolated rat aorta
Description: Contraction was induced by addition of KCt solution (final concentration was 30 mM).

Half-life period = details: rat, in vivo; rats, intravenous administration (0.32 mg/kg), (,B-phase)
human washed platelets = assay: Thrombin induced aggregation in human washed platelets; assay type: cell-based; details: Platelet, concentration 1.0 x 10^-5 M, thrombin final conc. 0.3-0.5 U/ml
Description: Blood was drawn from healthy volunteers into a plastic tube containing 1/10 volume of 3.8% sodium citrate and centrifuged at 120 g for 10 min to obtain platelet rich plasma (PRP). An equal volume of 25 mM Tris-HCI buffer (pH 7.4) containing 130 mM NaCl and 1.5 mM EDTA (buffer A) was added to the PRP, mixed and centrifuged at 1500 g for 10 min. The platelet pellet was suspended in buffer A and centrifuged at 1500 g for 5 min. The platelets were resuspended in 25 mM Tris-HCI buffer (pH 7.4) containing 130 mM NaCl and 0.3 mM EDTA and recentrifuged at 1500 g for 5 min. The platelets were finally suspended in Tyrode solution containing 0.3 % bovine serum albumin and the platelet count was adjusted to 3 x 10^8/ml. To 247.5 µl of platelet suspension, 2.5 µl of drug solution was added and incubated for 2 min at 37° C prior to addition of thrombin solution (final conc. 0.3-0.5 U/ml). Platelet aggregation was turbidometrically measured using a HEMATRACER 1.

platelet aggregation [3] = assay: Platelet aggregation in vitro (collagen-induced, guinea-pig PRP); assay type: cell-based; details: Cavia porcellus, collagen (0.5 µg/ml) as inducer
Description: (§1) Platelet rich plasma (PRP) which contains 6 - 7 x 10^8 platelets/ml and 3 x 10^8 platelets/ml was prepared from guinea-pig and human blood, respectively. To the each 245 µℓ of PRP, 5 µℓ of drug solution^* was added, and then stirred for 2 min at 37° C. To the solution, […] of collagen (0.5 µg/mℓ) was added as an aggregation inducer. Aggregation was measured by using an aggregometer (NKK HEMA-TRACER 1). Activities of inhibitors (test compounds) were expressed as IC50 values i.e. doses required to inhibit the platelet aggregation responses by 50%.
(§2) Drug solution^* --- Test compounds were dissolved in a mixture of ethanol, polyethylene glycol and saline (1:1:2, V/V/V) and dimethylsulfoxide for guinea-pig and human blood, respectively.

platelet aggregation [4] = assay: Platelet aggregation in vitro (collagen-induced, human PRP); assay type: cell-based; details: collagen (0.5 µg/ml) as inducer
Description: as §1, §2

[5] = contraction induced by KCl 30 mM, maximum relaxation by papaverine, read-out: ED50 (the source's name)

Structure (SMILES): COc1ccc(-c2nc(C(=O)N3CCN(C)CC3)sc2-c2ccc(OC)cc2)cc1.Cl [Example 1, 4,5-bis(4-methoxyphenyl)-2-(4-methylpiperazin-1-yl)carbonylthiazole hydrochloride]
lesion in the stomachs (stomachs of the rats): No lesion was observed
IC50 (cyclooxygenase): 430 nM
Inhibition (%) (Dose : 100 mg/kg) (Paw edema): 36.2%
acute toxicity (dead) (rats): the dead at dose of 100 mg/kg could not be observed
IC50 [1]: 6.28 µg/mL
inhibition at 1 mg/kg (platelet aggregation [2]): 100%
EC50 (isolated rat aorta; read-out: ED50 (M)): 6.2e-06 M
half-life (Half-life period): 4.51 h

EC50 (isolated rat aorta; [5]): 3e-06 M
Structure (SMILES): COc1ccc(-c2nc(C(=O)N(C)C)sc2-c2ccc(OC)cc2)cc1 [Example 3, 4,5-bis(4-methoxyphenyl)-2-(N,N-dimethylcarbamoyl) thiazole]

Structure (SMILES): COc1ccc(-c2nc(CNC(=N)N)sc2-c2ccc(OC)cc2)cc1 [Example 12, 4,5-bis(4-methoxyphenyl)-2-guanidinomethylthiazole hydrochloride]
inhibition at 10 µM (human washed platelets): 100%

Structure (SMILES): COc1ccc(-c2nc(NC(=N)N(C)C)sc2-c2ccc(OC)cc2)cc1 [Example 14, 4,5-bis(4-methoxyphenyl)-2-(3,3-dimethylguanidino)thiazole hydrochloride]
IC50 (platelet aggregation [3]): 42 nM
EC50 (isolated rat aorta; [5]): 4.8e-06 M
IC50 (platelet aggregation [4]): 560 nM

EC50 (isolated rat aorta; [5]): 2.4e-06 M
Structure (SMILES): CN=C(NC)Nc1nc(-c2ccc(OC)cc2)c(-c2ccc(OC)cc2)s1 [Example 21, 4,5-Bis(4-methoxyphenyl)-2-(2,3-dimethylguanidino)thiazole methanesulfonate]
